From patent publication US4285964A, “Salts of (+)-catechine, their preparation and use, and compositions containing these salts” (Continental Pharma, priority 1979, dated 1981)
Structures can show the parent of a compound that is named as a salt. Where two headings read alike, the source gives them in different places. Blank lines part the entries; values can stand above or below the compound they belong to.

What was measured:
[1] = solubility of double salts in the presence of 2% of benzyl alcohol; format: physicochemical; settings: salts formed with L-lysine and an acid
Experimental: These double salts of (+)-catechin are all hydrosoluble but the solubility varies somewhat as a function of the acid used.
Upon cooling, salts precipitate and 1 to 3% of benzyl alcohol are added, advantageously 2%. The solution is reheated to about 45° C. and allowed to cool again, preferably to below 10° C. The double salt then remains in solution.

[2] = volume of water per 1 g of (+)-catechin; cited from earlier work
[3] = pH of solutions of the salts; format: physicochemical

solubility [1]: 9.5 mg of (+)-catechin per ml
SMILES: Oc1cc(O)c2c(c1)O[C@H](c1ccc(O)c(O)c1)[C@@H](O)C2 [salt formed with L-lysine and citric acid]

solubility ([1]; listed as salt formed with L-lysine and hydrochloric acid): above 15 mg of (+)-catechin per ml
SMILES: Oc1cc(O)c2c(c1)O[C@H](c1ccc(O)c(O)c1)[C@@H](O)C2 [Example 2]

solubility [1]: above 15 mg of (+)-catechin per ml
SMILES: Oc1cc(O)c2c(c1)O[C@H](c1ccc(O)c(O)c1)[C@@H](O)C2 [salt formed with L-lysine and acetic acid]

SMILES: Oc1cc(O)c2c(c1)O[C@H](c1ccc(O)c(O)c1)[C@@H](O)C2 [(+)-catechin, trans-2-(3,4-dihydroxyphenyl)-3,4-dihydro-2H-1-benzopyran-3,5,7-triol]
solubility of (+)-catechin in water [2]: 1100-1200 ml of water

solubility ([1]; water, 2% benzyl alcohol, organic solvent or mixture, read-out: solubility): > 15 mg/mL | pH of an aqueous concentrated solution [3]: 6.5
SMILES: Oc1cc(O)c2c(c1)O[C@H](c1ccc(O)c(O)c1)[C@@H](O)C2 [Example 6]

solubility [1]: above 15 mg of (+)-catechin per ml
SMILES: Oc1cc(O)c2c(c1)O[C@H](c1ccc(O)c(O)c1)[C@@H](O)C2 [salt formed with L-lysine and glucuronic acid]
